According to US20220380347A1, “INHIBITORS OF CYSTEINE PROTEASES AND METHODS OF USE THEREOF” (Pardes Biosciences, Inc., priority 2020, published 2022):
pEC50, pIC50: −log10 of the molar value. Like-named read-outs stand apart in the source and are kept apart here.

Assays:
[1] = target: 229E Mpro (Human coronavirus 229E, UniProt P0C6X1); assay: 229E Mpro enzymatic assay (standard methods, SARS-CoV2 Mpro assay given as exemplary); type: biochemical, human coronavirus (HCov) 229E
Procedure, shortened: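 Run by standard methods, with the SARS-CoV-2 Mpro protocol given as the model: E. coli-expressed C-His6 protease at 25 nM and substrate at 25 μM (Km 13.5 μM). Buffer pH 7.3 with 5 mM TCEP and 0.1% BSA; % inhibition versus controls fitted to variable-slope log(inhibitor)-response for IC50.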

[2] = target: COVID-19 (nCoV-2019, SARS-CoV2) Mpro (Severe acute respiratory syndrome coronavirus 2, UniProt P0DTD1); assay: COVID-19 (nCoV-2019, SARS-CoV2) Mpro enzymatic assay; type: biochemical; conditions: 25 nM Mpro, 25 μM substrate; read-out: COVID-19 Mpro IC50
[3] = tested on: HCoV 229E; assay: HCoV 229E cytopathic effect (CPE) assay, CellTiter Glo; type: cell-based, human coronavirus (HCov) 229E; conditions: protection of virus-induced CPE
[4] = tested on: HCov OC43; assay: HCoV OC43 cytopathic effect (CPE) assay, CellTiter Glo; type: cell-based, human coronavirus (HCov) OC43
[5] = Betacoronavirus 1, OC43, read-out: OC43 IC50 (uM) MEDIAN, median
[6] = read-out: OC43 IC50 (uM) MEDIAN, median

229E Mpro, sequence (P0C6X1 2966-3267): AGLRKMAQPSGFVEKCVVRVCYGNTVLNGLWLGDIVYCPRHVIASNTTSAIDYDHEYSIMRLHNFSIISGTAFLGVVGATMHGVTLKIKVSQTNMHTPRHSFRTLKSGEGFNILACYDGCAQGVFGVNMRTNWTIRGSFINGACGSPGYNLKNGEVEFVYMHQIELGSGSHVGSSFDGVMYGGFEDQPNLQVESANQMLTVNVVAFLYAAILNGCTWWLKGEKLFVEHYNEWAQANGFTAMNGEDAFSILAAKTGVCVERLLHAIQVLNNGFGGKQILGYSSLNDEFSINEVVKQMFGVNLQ

Row | SMILES | pEC50 ([1]; 229E Mpro EC50) | pIC50 [2] | pEC50 ([3]; unidentified human coronavirus) | IC50 [4, 5] | pEC50 [3] | IC50 [4, 6] | pEC50 ([1]; read-out: 229E Mpro EC50) | IC50 ([4]; read-out: OC43 IC50 (uM) MEDIAN, median, listed as 299 Isomer 2) | IC50 ([4]; read-out: OC43 IC50 (uM) MEDIAN, median, listed as 293 Isomer 1) | IC50 ([4]; read-out: OC43 IC50 (uM) MEDIAN, median, listed as 284 Isomer 2)
1 | CC(C)(C)c1ccc(N(C(=O)[C@H]2CCCN2C#N)C(C(=O)N2CC(F)C2)c2cccnc2)cc1 (stereo partly drawn) [Compound 952, (2R)—N-(4-(tert-butyl)phenyl)-1-cyano-N-(2-(3-fluoroazetidin-1-yl)-2-oxo-1-(pyridin-3-yl)ethyl)pyrrolidine-2-carboxamide] | > 5.70 | 5.00 to 5.70 | 5.00 to 5.70 | 2 to 10 µM | – | – | – | – | – | –
2 | N#CN1C[C@H](O)C[C@@H]1C(=O)N(c1ccc2c(c1)NCCC2)C(C(=O)NC1CCCCC1)c1cccnc1 (single isomer, unassigned) [Compound 755 Isomer 2] | 5.00 to 5.70 | 4.52 to 5.00 | – | – | > 5.70 | 2 to 10 µM | – | – | – | –
3 | CC(C)(C)c1ccc(N(C(=O)[C@H]2C[C@H](Oc3ccccc3)CN2C#N)C(C(=O)NC2CCCCC2)c2cccnc2)cc1 (single isomer, unassigned) [Compound 308 Isomer 2] | > 5.70 | > 5.70 | > 5.70 | – | – | > 30 µM | – | – | – | –
4 | CN(C)C(=O)CNC(=O)C(c1cccnc1)N(C(=O)[C@H]1CCCN1C#N)c1ccc(C(C)(C)C)cc1 (stereo partly drawn) [Compound 415, (2R)—N-(4-(tert-butyl)phenyl)-1-cyano-N-(2-((2-(dimethylamino)-2-oxoethyl)amino)-2-oxo-1-(pyridin-3-yl)ethyl)pyrrolidine-2-carboxamide] | > 5.70 | 5.00 to 5.70 | 5.00 to 5.70 | 2 to 10 µM | – | – | – | – | – | –
5 | N#CN1C[C@H](O)C[C@@H]1C(=O)N(c1ccc(S(F)(F)(F)(F)F)cc1)C(C(=O)NC1CCCCC1)c1cccnc1 (single isomer, unassigned) [Compound 791 Isomer 2] | – | 5.00 to 5.70 | > 5.70 | – | – | < 2 µM | > 5.70 | – | – | –
6 | COCCNC(=O)C(c1cccnc1)N(C(=O)[C@H]1C[C@@H](O)CN1C#N)c1ccc(C(C)(C)C)cc1 (single isomer, unassigned) [627 Isomer 1] | > 5.70 | > 5.70 | 5.00 to 5.70 | – | – | < 2 µM | – | – | – | –
7 | CC(C)(O)CNC(=O)C(c1cccnc1)N(C(=O)[C@H]1CCCN1C#N)c1ccc(C(C)(C)C)cc1 (stereo partly shown) [Compound 1119] | > 5.70 | 5.00 to 5.70 | 5.00 to 5.70 | 2 to 10 µM | – | – | – | – | – | –
8 | CC(C)(C)c1ccc(N(C(=O)[C@H]2C[C@@H](O)CN2C#N)C(C(=O)Nc2c(Cl)cccc2Cl)c2cccnc2)cc1 (stereo partly drawn) [Compound 591, (2R,4R)—N-(4-(tert-butyl)phenyl)-1-cyano-N-(2-((2,6-dichlorophenyl)amino)-2-oxo-1-(pyridin-3-yl)ethyl)-4-hydroxypyrrolidine-2-carboxamide] | 5.00 to 5.70 | 5.00 to 5.70 | 5.00 to 5.70 | > 30 µM | – | – | – | – | – | –
9 | CC(C)(C)O[C@@H]1C[C@H](C(=O)N(c2ccc(C(C)(C)C)cc2)C(C(=O)NC2CCCCC2)c2cccnc2)N(C#N)C1 (single isomer, unassigned) [Compound 299 Isomer 2] | > 5.70 | > 5.70 | > 5.70 | – | – | – | – | 2 to 10 µM | – | –
10 | CO[C@H]1C[C@H](C(=O)N(c2ccc(C(C)(C)C)cc2)C(C(=O)NC2CCCCC2)c2cccnc2)N(C#N)C1 (single isomer, unassigned) [Compound 293 Isomer 1] | > 5.70 | > 5.70 | > 5.70 | – | – | – | – | – | < 2 µM | –
11 | N#CN1C[C@H](O)C[C@@H]1C(=O)N(c1ccc(C(F)(C(F)(F)F)C(F)(F)F)cc1)C(C(=O)NC1CCCCC1)c1cccnc1 (single isomer, unassigned) [Compound 779 Isomer 1] | > 5.70 | > 5.70 | 5.00 to 5.70 | < 2 µM | – | – | – | – | – | –
12 | COCCCNC(=O)C(c1cccnc1)N(C(=O)[C@H]1C[C@@H](O)CN1C#N)c1ccc(C(C)(C)C)cc1 (single isomer, unassigned) [647 Isomer 2] | – | > 5.70 | 5.00 to 5.70 | – | – | 2 to 10 µM | > 5.70 | – | – | –
13 | Cn1cnnc1C(C(=O)NC1CCCCC1)N(C(=O)[C@H]1C[C@@H](O)CN1C#N)c1ccc(C(C)(C)C)cc1 (single isomer, unassigned) [659 Isomer 2] | – | 5.00 to 5.70 | – | – | 5.00 to 5.70 | 2 to 10 µM | > 5.70 | – | – | –
14 | N#CN1C[C@H](O)C[C@@H]1C(=O)N(c1ccc(C2CC2)cc1)C(C(=O)NC1CCCCC1)c1cccnc1 (single isomer, unassigned) [723 Isomer 1] | > 5.70 | > 5.70 | > 5.70 | < 2 µM | – | – | – | – | – | –
15 | N#CN1C[C@H](O)C[C@@H]1C(=O)N(c1ccc(C2CC2)cc1F)C(C(=O)NC1CCCCC1)c1cccnc1 (single isomer, unassigned) [Compound 763 Isomer 2] | 5.00 to 5.70 | 4.52 to 5.00 | > 5.70 | – | – | 2 to 10 µM | – | – | – | –
16 | CC(C)(C)c1ccc(N(C(=O)[C@H]2C[C@@H](F)CN2C#N)C(C(=O)NC2CCCCC2)c2cccnc2)cc1 (single isomer, unassigned) [Compound 870 Isomer 1] | > 5.70 | > 5.70 | > 5.70 | < 2 µM | – | – | – | – | – | –
17 | N#CN1C[C@H](O)C[C@@H]1C(=O)N(c1ccc2c(c1)NCCC2)C(C(=O)NC1CCCCC1)c1cccnc1 (single isomer, unassigned) [Compound 755 Isomer 1] | > 5.70 | > 5.70 | > 5.70 | < 2 µM | – | – | – | – | – | –
18 | C[C@@]1(O)C[C@H](C(=O)N(c2ccc(S(F)(F)(F)(F)F)cc2)C(C(=O)NC2CCC(F)(F)CC2)c2cccnc2)N(C#N)C1 (single isomer, unassigned) [Compound 1156 Isomer 2] | – | > 5.70 | – | – | 5.00 to 5.70 | < 2 µM | > 5.70 | – | – | –
19 | CC(C)(C)c1ccc(N(C(=O)[C@H]2C[C@@H](O)CN2C#N)C(C(=O)NC2CCOCC2)c2cccnc2)cc1 (single isomer, unassigned) [619 Isomer 2] | – | 5.00 to 5.70 | – | – | > 5.70 | 2 to 10 µM | > 5.70 | – | – | –
20 | CC(C)(C)c1ccc(N(C(=O)[C@H]2CCCN2C#N)C(C(=O)NCC(=O)N2CCOCC2)c2cccnc2)cc1 (stereo partly drawn) [Compound 403, (2R)—N-(4-(tert-butyl)phenyl)-1-cyano-N-(2-((2-morpholino-2-oxoethyl)amino)-2-oxo-1-(pyridin-3-yl)ethyl)pyrrolidine-2-carboxamide] | > 5.70 | > 5.70 | 5.00 to 5.70 | 2 to 10 µM | – | – | – | – | – | –
21 | CC1(O)C[C@H](C(=O)N(c2ccc(C(C)(C)C)cc2)C(C(=O)NC2CCCCC2)c2cccnc2)N(C#N)C1 (single isomer, unassigned) [Compound 284 Isomer 2] | > 5.70 | > 5.70 | > 5.70 | – | – | – | – | – | – | < 2 µM
22 | CC(C)(C)c1ccc(N(C(=O)[C@H]2C[C@@H](O)CN2C#N)C(C(=O)NC2CCOCC2)c2cccnc2)cc1 (single isomer, unassigned) [619 Isomer 1] | > 5.70 | > 5.70 | 5.00 to 5.70 | < 2 µM | – | – | – | – | – | –
23 | CC(C)(C)c1ccc(N(C(=O)[C@H]2C[C@@H](F)CN2C#N)C(C(=O)NC2CCCCC2)c2cccnc2)cc1 (single isomer, unassigned) [Compound 870 Isomer 2] | – | 5.00 to 5.70 | – | – | 5.00 to 5.70 | < 2 µM | > 5.70 | – | – | –
24 | CN1CCN(C(=O)C(c2cccnc2)N(C(=O)[C@H]2CCCN2C#N)c2ccc(C(C)(C)C)cc2)CC1=O (stereo partly shown) [Compound 969] | > 5.70 | > 5.70 | 5.00 to 5.70 | 2 to 10 µM | – | – | – | – | – | –
25 | CC(C)(C)c1ccc(N(C(=O)[C@H]2C[C@@H](O)CN2C#N)C(C(=O)NC2CCCCC2)c2c[nH]nn2)cc1 (stereo partly drawn) [Compound 663, (2R,4R)—N-(4-(tert-butyl)phenyl)-1-cyano-N-(2-(cyclohexylamino)-2-oxo-1-(1H-1,2,3-triazol-4-yl)ethyl)-4-hydroxypyrrolidine-2-carboxamide] | > 5.70 | 5.00 to 5.70 | > 5.70 | 2 to 10 µM | – | – | – | – | – | –
